Experimental data reported in patent US20160251402A1, “MICROPEPTIDES AND USE OF SAME FOR MODULATING GENE EXPRESSION” (UNIVERSITE PAUL SABATIER TOULOUSE III, priority 2013, published 2016).
Entries after “also recorded” stand apart in the source; their conditions may differ.

Experiments:
AtmiR319a [1] = assay: Relative expression of AtmiR319a in A. thaliana (qRT-PCR); type: in vivo, Arabidopsis thaliana; conditions: plant in which AtmiPEP319a1 is overexpressed vs control plant
Arabidopsis thaliana = assay: Plant growth of Arabidopsis thaliana after 3 weeks of watering; type: in vivo; conditions: watered with 0.1 μM of synthetic peptide, 3 weeks of growth, vs water
AtmiR160b = assay: Relative expression of AtmiR160b in A. thaliana; type: in vivo, Arabidopsis thaliana; conditions: plant in which AtmiPEP160b1 is overexpressed vs control plant
MtmiR169d = assay: Relative expression of MtmiR169d in M. truncatula; type: in vivo, Medicago truncatula
Protocol: (§1) The total RNA was extracted from roots of M. truncatula or from tobacco leaves using the extraction kit RNeasy Plant Mini Kit (Qiagen). The reverse transcription was performed using the reverse transcriptase SuperScript II (Invitrogen) starting from 500 ng of total RNA. Three repetitions (n=3) were carried out, each with two technical repetitions. Each experiment was repeated from two to three times. The amplifications by qPCR were carried out using a LightCycler 480 System thermocycler (Roche Diagnostics) by the method described in Lauressergues et al. (Plant J., 72(3): 512-22, 2012).

REVOLUTA: REV = assay: Expression of REVOLUTA (REV) in roots of A. thaliana; type: in vivo, Arabidopsis thaliana; conditions: roots treated with 0.01, 0.1, 1 or 10 μM peptide vs water
[2] = system: Arabidopsis thaliana root growth; assay: Root growth in Arabidopsis thaliana; type: in vivo; conditions: plant treated with AtmiPEP165a vs control plant of the same age
AtmiR165a [3] = assay: Accumulation of AtmiR165a in the model plant of tobacco; type: in vivo, Nicotiana benthamiana; conditions: tobacco expressing AtmiR165a, overexpression of AtmiORF165a
Protocol: (§2) At present, AtmiPEP165a and AtmiPEP319a2, identified in Arabidopsis thaliana, have already been characterized.
as §1
(§3) For the miPEPs 165a and 319a, the corresponding miORFs were cloned into pBIN19 by the method described in Combier et al. (Genes & Dev, 22: 1549-1559, 2008).
(§4) The composite plants having roots transformed with Agrobacterium rhizogenes were obtained by the method described in Boisson-Dernier et al. (Mol Plant-Microbe Interact, 18: 1269-1276, 2005). The transformed roots were verified and selected by observations of DsRED with a binocular fluorescence magnifier. The control roots correspond to roots transformed with A. rhizogenes not containing the pPEX-DsRED vector. Transformation of the tobacco leaves was carried out by the method described in Combier et al. (Genes & Dev, 22: 1549-1559, 2008).

pri-miR165a [4] = assay: RNA stability of pri-miR165a in the presence of cordycepin; type: in vivo, Arabidopsis thaliana; conditions: in the presence of cordycepin (inhibitor of RNA synthesis), peptide at 10 μM
Protocol: For each condition, two week old plants that have been cultivated vertically on solid MS medium have been transferred in 6-well plates containing 1 ml of liquid MS medium. […] Each indivual experiment has been made 3 times.

PHABOLUSA: PHB = assay: Expression of PHABOLUSA (PHB) in roots of A. thaliana; type: in vivo, Arabidopsis thaliana; conditions: roots treated with 0.01, 0.1, 1 or 10 μM peptide vs water
pri-miR165a [5] = assay: Relative expression of pri-miR165a in A. thaliana (Col-0 and nrpb2-3); type: in vivo, Arabidopsis thaliana
Excerpt: Moreover, to determinate the mode of action of miPEPs regarding the accumulation of their own miRs, the expression of pri-miR165a has been analysed in wildtype plants and in plants that have been transformed to overexpress miPEP165a (FIG. 35).
Moreover, the expression of pri-miR165a has been analysed in wildtype plants (Col-0 plants) and in mutated plants having a low allele of the second large subunit of RNA polymerase II (nrpb2-3 plants). […] It appears that the miPEP operates as a transcription regulator.
as §1

PHAVOLUTA: PHV = assay: Expression of PHAVOLUTA (PHV) in roots of A. thaliana; type: in vivo, Arabidopsis thaliana; conditions: roots treated with 0.01, 0.1, 1 or 10 μM peptide vs water
AtmiR165a [6] = assay: Northern blot of AtmiR165a in A. thaliana roots; type: in vivo, Arabidopsis thaliana; conditions: 0.1 μM synthetic peptide dissolved in water vs water; U6 loading control
AtmiR165a [7] = assay: Accumulation of AtmiR165a in roots of A. thaliana (relative expression); type: in vivo, Arabidopsis thaliana; conditions: roots treated with 0.01, 0.1, 1 or 10 μM peptide vs water
AtmiR164a [8] = assay: Northern blot of AtmiR164a in A. thaliana roots; type: in vivo, Arabidopsis thaliana; conditions: 0.1 μM synthetic peptide dissolved in water vs water; U6 loading control
Protocol: Northern blot analysis was carried out according to the protocol described in Lauressergues et al. Plant J., 72(3): 512-22, 2012.
The biological samples were homogenized in a buffer containing 0.1 M of NaCl, 2% of SDS, 50 mM of Tris-HCl (pH 9), 10 mM of EDTA (pH 8) and 20 mM of mercaptoethanol, and the RNA was extracted twice with a phenol/chloroform mixture and was precipitated with ethanol.
The RNA was loaded on PAGE 15% gel and transferred to a nylon membrane (HybondNX, Amersham). RNA was hybridized with a radioactive oligonucleotide probe labelled at its end, in order to detect the RNA U6 or for miR164a.
The hybridizations were carried out at 55° C. The hybridization signals were quantified using a phosphorimager (Fuji) and normalized with the signal of the specific probe of RNA U6.

AtmiR164a [9] = assay: Relative expression of AtmiR164a in A. thaliana (qRT-PCR); type: in vivo, Arabidopsis thaliana; conditions: plant watered once a day with peptide at 0.1 μM vs control plant
MtmiR171e = assay: Relative expression of MtmiR171e in M. truncatula; type: in vivo, Medicago truncatula; conditions: plant in which MtmiPEP171e is overexpressed vs control plant
Protocol: as §1, §4

AtmiR319a [10] = assay: Accumulation of AtmiR319a in the model plant of tobacco; type: in vivo, Nicotiana benthamiana; conditions: tobacco expressing AtmiR319a, overexpression of AtmiORF319a
Protocol: as §2, §1, §3, §4

DmmiR8 = assay: Relative expression of Pre-miR8 in transfected Drosophila melanogaster cells; type: cell-based
Protocol: S2 cells are cultured in a T75 flask in 12 mL of Schneider's medium (GIBCO), containing 1% of penicillin 100 U/mL and […] (Sigma) and 10% of decomplemented foetal calf serum (30 min at 56° C.). The transient transfections are carried out using the FuGENE® HD transfection kit (Roche), according to the recommendations. Conventionally, 1.5 million S2 cells, previously seeded in 6-well plates (3 ml of medium per well), are transfected with 250 ng of total plasmid DNA. The DNA is brought into contact with the Fugene (3 μl) in 100 μl of OPTIMEM (GIBCO). After 20 minutes, the transfection reagent formed is brought into contact with the cells in the culture medium. The RNA of the cells is extracted 66 h after transfection.

Molecule: MNIHTYHHLLFPSLVFHQSSDVPNALSLHIHTYEYIIVVIDPFRITLAFR [AtmiPEP319a1]
- relative expression of AtmiR319a (AtmiR319a [1]): increase in the accumulation of AtmiR319a; also recorded: increase in the relative expression of AtmiR319a; also recorded: increase in the accumulation of miR319a
- plant growth (Arabidopsis thaliana): increases plant growth significantly

Molecule: MFSPQ (listed as Arabidopsis thaliana) [AtmiPEP160b1]
- relative expression of AtmiR160b (AtmiR160b): increase in the relative expression of AtmiR160b; also recorded: induces an accumulation of AtmiR160b

Molecule: MVKESFMERLKVR (listed as Medicago truncatula) [MtmiPEP169d]
- accumulation of MtmiR169d (MtmiR169d; overexpression of the miPEP in M. truncatula (as worded in Example 1B)): induces an accumulation of MtmiR169d
- relative expression of MtmiR169d (MtmiR169d; plant watered once a day with peptide at 0.1 μM vs control plant): increase in the relative expression of MtmiR169d

Molecule: MRVKLFQLRGMLSGSRIL (listed as Arabidopsis thaliana) [AtmiPEP165a]
- relative expression of REV (REVOLUTA: REV): negative regulation of its target genes
- root growth phenotype [2]: greatly accelerated root growth
- accumulation of AtmiR165a (AtmiR165a [3]): increase in the accumulation
- stability of pri-miR165a (pri-miR165a [4]): does not induce a better stability of pri-miR165a
- stability of pri-miR165a (pri-miR165a [4]; listed as miPEP165a): does not operate as a RNA stabilizer, but rather as a transcription activator of pri-miR165a
- relative expression of PHB (PHABOLUSA: PHB): negative regulation of its target genes
- relative expression of pri-miR165a (pri-miR165a [5]; nrpb2-3 mutated plants vs wildtype (Col-0), water or peptide at 10 μM): not capable of accumulating AtmiR165a in response to AtmiPEP165a
- relative expression of pri-miR165a (pri-miR165a [5]; nrpb2-3 mutated plants vs wildtype (Col-0), water or peptide at 10 μM, listed as miPEP165a): mutated plants do not show an increase in the accumulation of pri-miR165 in response to miPEP165a
- expression of pri-miR165a (pri-miR165a [5]; plants that overexpress miPEP165a vs wildtype plants): enhanced
- relative expression of pri-miR165a (pri-miR165a [5]; roots watered once a day with peptide at 10 μM vs control roots): increase in the relative expression of AtmiR165a
- relative expression of PHV (PHAVOLUTA: PHV): negative regulation of its target genes
- accumulation of AtmiR165a (Northern blot) (AtmiR165a [6]): increase in the accumulation of miR165a
- relative expression of AtmiR165a (AtmiR165a [7]): dose-dependent effect of the accumulation of AtmiR165a
- relative expression of AtmiR165a (AtmiR165a [7]; listed as miPEP165a): dose-dependent effect on the accumulation of miR165a

Molecule: MPSWHGMVLLPYVKHTHASTHTHTHNIYGCACELVFH [AtmiPEP164a1]
- accumulation of AtmiR164a (Northern blot) (AtmiR164a [8]): increase in the accumulation of miR164a
- relative expression of AtmiR164a (AtmiR164a [9]): increase in the relative expression of AtmiR164a
- plant growth (Arabidopsis thaliana): increases plant growth significantly

Molecule: MMVFGKPKKAMLVRFNPKTDLHV (listed as Medicago truncatula) [MtmiPEP171e]
- relative expression of MtmiR171e (MtmiR171e): increase in the relative expression of MtmiR171e; also recorded: induces an accumulation of MtmiR171e

Molecule: MFQTLYLFIYIHTNILLLS (listed as Arabidopsis thaliana) [AtmiPEP319a2]
- accumulation of AtmiR319a (AtmiR319a [10]): increase in the accumulation

B1: MEPGFVFVLFPTHLSTQHTQREKSILVMGLNLQSAKQSDKQNSKERKKNTQINSQRIPYRQGGQCSKVLSP (peptide)
chain: MEPGFVFVLFPTHLSTQHTQREKSILVMGLNLQSAKQSDKQNSKERKKNTQINSQRIPYRQGGQCSKVLSP
modifications: Drosophila melanogaster
- relative expression of Pre-miR8 (DmmiR8; cells overexpressing DmmiPEP8 vs miPEP8 with mutated start codons): increases the expression of DmmiR8
- relative expression of Pre-miR8 (DmmiR8; cells overexpressing wild-type DmmiR8 vs DmmiR8 with mutated miPEP8 start codons): increases the expression of DmmiR8
